For one test, the target named is 5-HT1 receptor. The test can be described thus: Affinity for the 5-HT1 receptor; receptor-binding studies using calf hippocampus membrane preparations, 3H-serotonin. Particulars: calf hippocampus membranes. The source says: Affinity for the 5-HT1 receptor
The high affinity of the compounds according to the invention for 5-hydroxytryptamine receptors of subtype 1 is shown in Table 1 by way of example. The values shown are data which have been determined from receptor-binding studies using calf hippocampus membrane preparations. To this end, ^3 H-serotonin was used as radioactively labelled ligand.

The target of a further test is dopamine D2 receptor (Rattus norvegicus, UniProt P61169). The experiment in a line: Dopamine D2 receptor test; binding of 3H-sulpiride to membranes from the striatum of rats.
Chain of dopamine D2 receptor (P61169 whole entry): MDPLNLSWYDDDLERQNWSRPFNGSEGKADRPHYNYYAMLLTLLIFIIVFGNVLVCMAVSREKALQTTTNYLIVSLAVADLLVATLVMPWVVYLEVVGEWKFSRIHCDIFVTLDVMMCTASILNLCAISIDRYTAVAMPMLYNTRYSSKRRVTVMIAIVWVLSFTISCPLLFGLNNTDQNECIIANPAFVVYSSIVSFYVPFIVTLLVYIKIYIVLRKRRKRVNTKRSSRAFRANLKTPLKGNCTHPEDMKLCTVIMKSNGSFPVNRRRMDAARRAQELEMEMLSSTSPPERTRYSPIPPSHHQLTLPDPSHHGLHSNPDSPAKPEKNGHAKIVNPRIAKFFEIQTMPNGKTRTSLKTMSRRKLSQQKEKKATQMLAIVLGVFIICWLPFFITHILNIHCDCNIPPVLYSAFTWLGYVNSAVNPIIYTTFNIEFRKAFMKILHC
For the next test, the target named is T1, 5-HT1A receptor (Bos taurus, UniProt F6Q2H9).
T1 construct: 5-HT1A receptors in calf hippocampus membranes; from tissue; host or cells: calf hippocampus membranes
T1 sequence (F6Q2H9 1-422): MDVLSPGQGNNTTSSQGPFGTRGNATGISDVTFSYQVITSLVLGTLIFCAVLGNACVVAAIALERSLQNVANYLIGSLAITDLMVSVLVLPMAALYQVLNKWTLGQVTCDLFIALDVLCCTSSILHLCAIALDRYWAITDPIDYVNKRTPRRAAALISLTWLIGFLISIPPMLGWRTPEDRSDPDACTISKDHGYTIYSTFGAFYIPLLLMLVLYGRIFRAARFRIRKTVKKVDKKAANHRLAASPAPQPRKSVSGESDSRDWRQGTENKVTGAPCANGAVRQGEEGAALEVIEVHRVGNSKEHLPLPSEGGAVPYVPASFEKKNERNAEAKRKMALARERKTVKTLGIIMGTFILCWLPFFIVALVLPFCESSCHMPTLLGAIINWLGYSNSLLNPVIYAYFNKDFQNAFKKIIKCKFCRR
The test can be described thus: Affinity for the 5-HT1A receptor; binding of 3H-ipsapiron to 5-HT1A receptors in calf hippocampus membranes. As to the method:
Affinity for the 5-HT1A receptor
[W. U. Dompert et al., Naunyn-Schmiedeberg's Arch. Pharmacol. (1985), 328, 467-470].
In this test the binding of ^3 H-ipsapiron to 5-HT1A receptors in calf hippocampus membranes is measured.

The next test concerns α-adrenergic. Particulars: hydrochloride; literature; cited from earlier work.
Where [1] appears, read: 3H-sulpiride, rat striatum membranes, Ki calculated from IC50, read-out: Ki.

Structures are written as SMILES. Structures can show the parent of a compound that is named as a salt. Where two headings read alike, the source gives them in different places.

Experimental for dopamine D2 receptor: In this test the binding of the selective D2 receptor antagonist ^3 H-sulpiride to membranes from the striatum of rats is measured. Compounds which bind to dopamine D2 receptors inhibit the binding of ^3 H-sulpiride in a concentration-dependent manner. IC50 values are determined from the displacement curves and the inhibition constants Ki calculated from these values.

Take `COc1cccc2c1OC(CN1CCC(CN3C(=O)c4ccccc4C3=O)CC1)CC2` (centres unmarked) [Example 2, 2-[4-(Isoindol-1,3-dion-2-yl)methyl-piperidin-1-yl)methyl-8-methoxychroman oxalate hydrate]: the Ki (commonly a dissociation constant, usually derived from enzyme kinetics or from competition with a known ligand) at 5-HT1 receptor was 3 nM; on dopamine D2 receptor (setting [1]) it was 1.8 nM.
`COc1cccc2c1OC(CN1CCC(n3c(=O)[nH]c4ccccc43)CC1)CC2` (centres unmarked) [Example 4] showed a Ki on 5-HT1 receptor of 2 nM.
The compound `O=c1[nH]c2ccccc2n1C1CCN(CC2CCc3ccccc3O2)CC1` (centres unmarked) [Example 3, 1-(Chroman-2-yl-methyl)-4-(2-oxo-1-benzimidazolyl)-piperidine] registered a Ki on dopamine D2 receptor of 0.4 nM.
For the compound `COc1cccc2c1OC(CN1CC=C(n3c(=O)[nH]c4ccccc43)CC1)CC2` (centres unmarked) [Example 6], the Ki was 1.4 nM on 5-HT1A receptor and 2.3 nM at dopamine D2 receptor (setting [1]).
`c1ccc2c(c1)CCC(CN1CCCCC1)O2` (centres unmarked) [1-[(3,4-dihydro-2H-1-benzopyran-2-yl)methyl]piperidine]: the α-adrenergic-blocking effect entry in the test with α-adrenergic is listed as “α-adrenergic-blocking effect”.
The compound `O=c1[nH]c2ccccc2n1C1=CCN(CC2CCc3ccccc3O2)CC1` (centres unmarked) [Example 5] had a Ki on 5-HT1A receptor of 1.5 nM.

The values are drawn from US5696136A, “Method of treating psychosis using azaheterocyclylmethyl” (Bayer Aktiengesellschaft, priority 1991, dated 1997).
